Measured values reported in article PMC6235670, “An mTOR Signaling Modulator Suppressed Heterotopic Ossification of Fibrodysplasia Ossificans Progressiva” (Stem Cell Reports, 2018).
Where two headings read alike, the source gives them in different places. Values belong to the compound of their own block, whether it stands above or below them.

Assays:
[1] = system: ATDC5/FOP-ACVR1 cells; test: AlamarBlue viability assay in ATDC5/FOP-ACVR1; settings: for Viability (%) @10 μM: AlamarBlue, ATDC5/FOP-ACVR1, 10 μM
Procedure: (§1) Generation of ATDC5 stably expressing ACVR1. WT - or FOP-ACVR1 was inserted into doxycycline (Dox)- […]
(§2) (KW111/WT-ACVR1 or KW111/FOP-ACVR1). KW111/WT-ACVR1 or KW111/FOP-ACVR1 and PBaseII […]
(§3) FuGeneHD® (Promega) according to the manufacturer’s protocol, and the neomycin- resistant population (500 µg/mL) was selected. Further selection was performed by selecting a mCherry high positive population (< 5%) after six hours of Dox treatment, sorting it with fluorescent-activated cell sorting (FACS) using AriaII (BD) according to the manufacturer’s protocol, and designating it as ATDC5/WT-ACVR1 or ATDC5/FOP-ACVR1.
(§4) KW111 included PB, active transposable PB elements; TRE-mCMVP, Tetracycline Response Element and a minimal CMV promoter; rtTA, reverse tetracycline-controlled transactivator. PBaseII was an expression plasmid vector containing the PB transposase cDNA with optimized codon usage to human under the control […]
(§5) HTS campaign and follow-up screens. ATDC5/FOP-ACVR1 cells were plated in 96-well white plates (2,000 cells/well/40 µ L, Corning) in DMEM/F-12 supplemented with 5% (v/v) FBS. […]
(§6) 37 °C under 5% CO2. After 3 days incubation, Alkaline Phosphatase activity (ALP) or AlamarBlue activity was measured using Amplite™ Colorimetric Alkaline Phosphatase Assay Kit (AAT Bioquest) or alamarBlue® Cell Viability Reagent (Thermo Fisher Scientific) according to the manufacturer’s protocol, respectively. T h e […]
(§7) was measured on POWERSCAN4 (DS Pharma Biomedical) or EnVision® Multilabel Reader (PerkinElmer).
(§8) Inhibitory effects of the screened compounds are given as percent inhibition, which was calculated using the following equation: (1-([Abs of compound] - [Abs of Min])/([Abs of Max] - [Abs of Min]))× 100, where [Abs of Max] and [Abs of Min] are the mean Abs of DMSO control and 1 µM DMH-1, respectively. The Z’ factor, which is widely used as a measure of the assay quality of each plate, was calculated using the following equation: Z’ factor = 1 - 3 × ([SD of Max] + [SD of Min])/([Abs of Max] - [Abs of Min]) (SI Appendix, Fig.
(§9) The S/B (signal-to-background) ratio was calculated using the following equation: ([Abs of Max]/[Abs of Min]) (SI Appendix, Fig. S3B).
(§10) Using ATDC5/FOP-ACVR1 cells, we performed a first screening (n=2; test compounds = 1 µM, Fig. […]

[2] = system: ATDC5/FOP-ACVR1 cells; test: ALP assay (HTS and dose-response) in ATDC5/FOP-ACVR1; format: cell-based, mouse; settings: same protocol as HTS (72 h)
[3] = AlamarBlue viability assay in ATDC5/FOP-ACVR1; settings: mouse, ATDC5 cells stably expressing FOP-ACVR1 (ATDC5/FOP-ACVR1)
Procedure: as §1, §2, §3, §4, §5, §6, §7, §8, §9, §10

[4] = system: FOP-iMSCs; test: 2D chondrogenic induction of FOP-iMSCs with activin A (GAG, Alcian blue); format: cell-based, human; settings: activin A, 7 days; for effect on GAG in the chondrogenesis of FOP-iMSCs (ERBB2 kinase inhibitors): 100 nM and 1 µM
[5] = system: mTOR signaling (p-S6); test: p-S6 western blotting during chondrogenic induction of FOP-iMSCs with activin A; format: cell-based, human
Procedure: Western blotting. SDS- PAGE and blotting with whole-cell lysates were performed by standard procedures.
Protein bands were detected with ECL Prime Western Blotting Detection Reagent (GE Healthcare) and visualized using BIO-RAD Molecular Imager® Chemi-DocTM XRS+ with Image LabTM software (Bio-Rad).
All data (relative intensity) were corrected by β-actin.
Antibodies for western blotting and immunostaining.
N ame Company Cat. No Concentration
Human Activin RIA/ALK-2 Antibody R&D Systems) AF637 1:100
Anti-human Vimentin antibody Abcam ab16700 1:40
Collagen I Antibody Novus NB600- 1:100
Anti-rabbit IgG, HRP-linked Antibody Cell Signaling #7074 1:10000 […]
2nd Goat anti-Rabbit IgG (H+L) Secondary Antibody, Invitrogen A-11008 1:100 antibody Alexa Fluor® 488 conjugate
Goat anti-Rabbit IgG (H+L) Secondary Antibody, Invitrogen A-21428 1:500

[6] = system: FOP-iMSCs; test: Microarray / pathway analysis of activin A-induced chondrogenesis of FOP-iMSCs; format: cell-based, human; settings: 100 nM, 100 ng/mL Activin-A, 7 days, microarray, N = 1
Procedure: Microarray experiments. 2D chondrogenic induction was performed in FOP-iMSCs stimulated with or without 100 ng/mL Activin-A, TAK 165, CP-724714 and Lapatinib. Seven days after incubation, mRNA was extracted. RNA was reverse transcribed, biotin-labeled and hybridized to GeneChip Human Gene 1.0 ST Expression Array, which was subsequently washed and scanned according to the manufacturer’s instructions (Affymetrix). Raw CEL files were imported into GeneSpring GX 12.6.1 software (Agilent Technologies), and expression values were calculated with the RMA16 algorithm. Pathway analysis was performed by Ingenuity pathway analysis (Qiagen). […]

[7] = system: ATDC5/FOP-ACVR1 cells; test: ALP assay (HTS and dose-response) in ATDC5/FOP-ACVR1; format: cell-based, mouse
Procedure: ATDC5/FOP-ACVR1 cells were plated in 96-well white plates (2,000 cells/well/40 μL, Corning) in DMEM/F-12 supplemented with 5% (v/v) FBS. Two hours after incubation at 37°C under 5% CO2, 10 μL of test compounds (final 1 μM) was added, and the assay plates were incubated at 37°C under 5% CO2. After 3 days of incubation, ALP activity was measured using an Amplite Colorimetric Alkaline Phosphatase Assay Kit (AAT Bioquest) according to the manufacturer's protocol.
as §1, §2
FuGeneHD® (Promega) according to the manufacturer’s protocol, and the neomycin- resistant population (500 µg/mL) was selected. […]
as §6, with “HTS campaign and follow-up screens. […]” for “37 °C under 5% CO2.”, “respectively.” for “respectively. T h e”
as §7, §8
The S/B (signal-to-background) ratio was calculated using the following equation: ([Abs of Max]/[Abs of Min]) (SI Appendix, Fig. S3B). […]

[8] = system: BMP signaling (BRE-Luc); test: BRE-Luc reporter assay in FOP-iMSCs; format: cell-based, human; settings: activin A and compounds for 16 hr
Procedure: (§11) FOP-iMSCs transiently transfected with BRE-Luc (A) or CAGA-Luc (B) with CMV-Renilla were stimulated with activin A and compounds for 16 hr (A) or 3 hr (B). […] One day after siRNA transfection, chondrogenic induction with activin A was initiated, and after 7 days the cells were harvested. […] FOP-iMSCs cultured with 10% FBS were treated with 100 nM rapamycin (Rapa) or TAK 165 (TAK) for 2 hr, and the cells were harvested. […] 1 μM TAK, 1 μM CP (CP-724714, another selective ERBB2 inhibitor), or 10 nM Rapa were applied in the experiments.

[9] = system: TGF-β signaling (CAGA-Luc); test: CAGA-Luc reporter assay in FOP-iMSCs; format: cell-based, human; settings: activin A and compounds for 3 hr
Procedure: as §11

Compound: CC(C)(C)n1nc(-c2cccc3ccccc23)c2c(N)ncnc21 [1-Naphthyl PP1]
Viability (%) @10 μM [1]: 83% | IC50 [2]: 12200 nM

IC50 ([2]; Mus musculus): 77 nM
Compound: COc1ccc(-c2ccc3c(N4CCOC[C@@H]4C)nc(N4CCOC[C@@H]4C)nc3n2)cc1CO [AZD8055]
viability at 3 days, 10 µM [3]: 25%

IC50 ([2]; Mus musculus): 526 nM
Compound: C=C1/C(=C\C=C2/CCC[C@]3(C)[C@@H]([C@H](C)CCCC(C)C)CC[C@@H]23)C[C@@H](O)C[C@@H]1O [Alfacalcidol]
viability at 3 days, 10 µM [3]: 54%

IC50 ([2]; Mus musculus): 87 nM
Compound: Cn1c(=O)n(-c2ccc(C(C)(C)C#N)cc2)c2c3cc(-c4cnc5ccccc5c4)ccc3ncc21 [BEZ235]
viability at 3 days, 10 µM [3]: 21%

IC50 ([2]; Mus musculus): 9 nM
Compound: Cc1ccc(-n2nc(C(C)(C)C)cc2NC(=O)Nc2ccc(OCCN3CCOCC3)c3ccccc23)cc1 [BIRB 796]
viability at 3 days, 10 µM [3]: 99%

Compound: COCC(=O)NC/C=C/c1ccc2ncnc(Nc3ccc(Oc4ccc(C)nc4)c(C)c3)c2c1 [CP-724714]
effect on GAG in the chondrogenesis of FOP-iMSCs (ERBB2 kinase inhibitors) [4]: no effect | p-S6 after 24-hr stimulation ([5]; 1 μM, 24 hr): no effects | p-S6 after 7 days of stimulation ([5]; 1 μM, 7 days): not | ADAMTS5 expression ratio to the TAK 165-treated group [6]: 3.1 | BMP4 expression ratio to the TAK 165-treated group [6]: 5.2 | DKK1 expression ratio to the TAK 165-treated group [6]: 0.2 | FOS expression ratio to the TAK 165-treated group [6]: 3.2 | FRZB expression ratio to the TAK 165-treated group [6]: 3.6 | FZD3 expression ratio to the TAK 165-treated group [6]: 0.3 | ITGA3 expression ratio to the TAK 165-treated group [6]: 3.9 | ITGB3 expression ratio to the TAK 165-treated group [6]: 3.3 | MMP1 expression ratio to the TAK 165-treated group [6]: 11.5 | MMP13 expression ratio to the TAK 165-treated group [6]: 5.4 | PIK3R3 expression ratio to the TAK 165-treated group [6]: 0.4 | SPP1 expression ratio to the TAK 165-treated group [6]: 4.4 | TNFRSF11B expression ratio to the TAK 165-treated group [6]: 3.4 | WIF1 expression ratio to the TAK 165-treated group [6]: 0.1 | WNT16 expression ratio to the TAK 165-treated group [6]: 3.0

IC50 ([2]; Mus musculus): 0.3 nM
Compound: C=C1/C(=C\C=C2/CCC[C@]3(C)[C@@H]([C@H](C)/C=C/[C@@H](O)C4CC4)CC[C@@H]23)C[C@@H](O)C[C@@H]1O [Calcipotriol]
viability at 3 days, 10 µM [3]: 80%

Compound: C=C1/C(=C\C=C2/CCC[C@]3(C)[C@@H]([C@H](C)CCCC(C)(C)O)CC[C@@H]23)C[C@@H](O)C[C@@H]1O [Calcitriol]
IC50 ([7]; Mus musculus, 72 h, read-out: IC50 (ALP assay)): 0.4 nM | viability at 3 days, 10 µM [3]: 81%

IC50 [2]: 21 nM
Compound: CC(C)Oc1ccc(-c2cnc3c(-c4ccnc5ccccc45)cnn3c2)cc1 [DMH-1]
ALP activity of ATDC5/FOP-ACVR1 ([7]; 72 hr after Dox and compound, without BMP stimulation): inhibited | viability (AlamarBlue) of ATDC5/FOP-ACVR1 ([1]; 72 hr after Dox and compound): not | Viability (%) @10 μM [1]: 92%

IC50 ([2]; Mus musculus): 11 nM
Compound: CC(C)(C)Cn1c(N)nc2ccc(-c3[nH]c(C(C)(C)C)nc3-c3ccc(F)cc3)nc21 [LY2228820]
viability at 3 days, 10 µM [3]: 75%

IC50 [2]: 6570 nM
Compound: Nc1ncnc2c1c(-c1cccc(OCc3ccccc3)c1)cn2C1CC(CN2CCCC2)C1 (stereo not drawn) [NVP-ADW742]
Viability (%) @10 μM [1]: -1%

BRE-Luc (BMP-specific luciferase reporter) [8]: inhibited | CAGA-Luc (TGF-β-responsive luciferase reporter) [9]: inhibited | IC50 [2]: 317 nM
Compound: CCN(CC)CCCCNc1ncc2cc(-c3c(Cl)cccc3Cl)c(NC(=O)NC(C)(C)C)nc2n1 [PD 161570]
Viability (%) @10 μM [1]: 63% | inhibition of glycosaminoglycan (GAG) production ([4]; 1 μM): potent inhibition | suppression of chondrogenic induction (GAG), dose dependence [4]: dose-dependent | p-S6 levels from 2 hr after treatment ([5]; 1 µM): significantly inhibited

Compound: CCc1c2c(nc3ccc(O)cc13)-c1cc3c(c(=O)n1C2)COC(=O)[C@]3(O)CC [SN 38]
Viability (%) @10 μM [1]: 17% | IC50 [2]: 98 nM

Compound: CS(=O)(=O)CCNCc1ccc(-c2ccc3ncnc(Nc4ccc(OCc5cccc(F)c5)c(Cl)c4)c3c2)o1 [lapatinib]
effect on GAG in the chondrogenesis of FOP-iMSCs (ERBB2 kinase inhibitors) [4]: no effect | ADAMTS5 expression ratio to the TAK 165-treated group [6]: 2.1 | BMP4 expression ratio to the TAK 165-treated group [6]: 0.4 | DKK1 expression ratio to the TAK 165-treated group [6]: 2.1 | FOS expression ratio to the TAK 165-treated group [6]: 2.4 | FRZB expression ratio to the TAK 165-treated group [6]: 3.0 | FZD3 expression ratio to the TAK 165-treated group [6]: 0.4 | ITGA3 expression ratio to the TAK 165-treated group [6]: 2.5 | ITGB3 expression ratio to the TAK 165-treated group [6]: 3.6 | MMP1 expression ratio to the TAK 165-treated group [6]: 3.0 | MMP13 expression ratio to the TAK 165-treated group [6]: 6.9 | PIK3R3 expression ratio to the TAK 165-treated group [6]: 2.1 | SPP1 expression ratio to the TAK 165-treated group [6]: 3.7 | TNFRSF11B expression ratio to the TAK 165-treated group [6]: 0.5 | WIF1 expression ratio to the TAK 165-treated group [6]: 0.1 | WNT16 expression ratio to the TAK 165-treated group [6]: 0.5

Compound: pertuzumab: ERBB2-selective neutralizing antibody
effect on GAG in the chondrogenesis of FOP-iMSCs (ERBB2 neutralizing antibodies) ([4]; 1 µg/mL): no effect
